Paper PMC8624133, “10th Trends in Medical Mycology Held on 8 to 11 October 2021, Aberdeen, Scotland, Organized by the European Confederation of Medical Mycology (ECMM)” (Journal of Fungi, 2021)
≈ marks a conversion by molar mass, not a printed value.

Key:
[1] = test system: A. terreus sensu stricto isolates; experiment: AMB MIC (EUCAST) of isolates used for time-kill; assay type: cell-based; conditions: Aspergillus terreus
Procedure: Materials & Methods: Tolerance is the ability of a “susceptible isolate” to grow in the presence of AMB above the MIC; tolerant fungi are characterized by a longer minimum duration of killing time (MDK) than susceptible isolates. We investigated AMB-MDKs of A. terreus sensu stricto isolates (n = 4) representing susceptible (S < […]) and resistant (R > […]) phenotypes (EUCAST). Time-kill curve analysis (99% killing of the initial population) was performed in RPMI 1640 and AM3 media at different AMB concentrations, and in parallel, the germination rate was determined microscopically.

[2] = test system: C. blankii; experiment: Vitek 2 fungal susceptibility card; assay type: cell-based, Candida blankii
[3] = test system: Cryptococcus bacillisporus (AFLP5/VGIII); experiment: E-test method; assay type: cell-based
[4] = test system: C. parapsilosis SC isolates; experiment: Candidemia survey Greece, susceptibility per hospital protocol; assay type: cell-based, Candida parapsilosis species complex
[5] = test system: C. parapsilosis; experiment: ARIA surveillance, CLSI M27 broth microdilution; assay type: cell-based, Candida parapsilosis
[6] = test system: C. albicans; experiment: In vitro fluconazole susceptibility, neonatal invasive candidiasis; assay type: cell-based, Candida albicans
[7] = test system: C. albicans SC5314 experimental population; experiment: Experimental evolution under fluconazole, azole susceptibility; assay type: cell-based; conditions: Candida albicans
[8] = test system: Candida albicans and C. glabrata; assay type: cell-based, Candida spp.; conditions: 20 women with RVVC
[9] = Voriconazole level monitoring with flucloxacillin co-administration; assay type: in vivo, human
From the text: Methods: Synoptic description of a significant interaction in 2 critically ill patients and analysis of interaction screening in validated data bases.

[10] = test system: Fusarium solani (FS) mature biofilms; experiment: XTT biofilm damage assay; assay type: cell-based
Procedure: (§1) Materials & Methods: 10^5 cfu/mL of FS (n = 3) and SA (n = 3) BF-producing strains were incubated in RPMI at 37 °C for 48 h. PMN were isolated from healthy volunteers by dextran sedimentation/ficoll centrifugation. BF were incubated with PMN at effector-to-target ratio 5:1 alone or in combination with L-AMB (FS: 0.25/2/32 mg/L; SA: 0.25/1/16 mg/L) or VRC (FS: 8/64 mg/L; SA: 0.5/32 mg/L) at 37 °C/5% CO2 for 24 h. Antifungal activity was assessed by XTT reduction assay of metabolic activity. […] The % damage of the PMN+drug treatment was compared to that of PMN or drug alone by ANOVA (n = 8, p < 0.05).

[11] = test system: Scedosporium apiospermum (SA) mature biofilms; experiment: XTT biofilm damage assay; assay type: cell-based
Procedure: as §1

[12] = Voriconazole exposure during ECMO, retrospective; assay type: in vivo, human
[13] = test system: S. apiospermum (SA) biofilms; experiment: Mature biofilm damage, XTT metabolic reduction assay; conditions: Scedosporium apiospermum, 24 h, read-out: BF MIC50
[14] = test system: Aspergillus isolates (total); experiment: Triazole resistance agar screening, four-well plate; conditions: RPMI agar, 1 µg/mL, 50 isolates
Procedure: All the isolates were identified phenotypically. […] Fungal spores were suspended in normal saline (0.85%) and adjusted to 0.5 McFarland and 50 μL was plated in each well. […] Plates were incubated at 35–37 °C for 72 h in ambient air. The presence or absence of growth was observed visually at 24 h, 48 h, and 72 h.

## C[C@@H]1[C@H](O)[C@@H](C)/C=C/C=C/C=C/C=C/C=C/C=C/C=C/[C@H](O[C@@H]2O[C@H](C)[C@@H](O)[C@H](N)[C@@H]2O)C[C@@H]2O[C@](O)(C[C@@H](O)C[C@@H](O)[C@H](O)CC[C@@H](O)C[C@@H](O)CC(=O)O[C@H]1C)C[C@H](O)[C@H]2C(=O)O [amphotericin B]
[1]; A. terreus 81 and 31, each
  MIC: 1 mg/L (≈ 1.08 µM)
[1]; A. terreus 134
  MIC: 4 mg/L (≈ 4.33 µM)
[1]; A. terreus 164
  MIC: 0.5 mg/L (≈ 0.541 µM)

## OC(Cn1cncn1)(Cn1cncn1)c1ccc(F)cc1F [fluconazole]
[2]
  susceptibility: resistant
[3]
  antifungal susceptibility: low response
[4]
  Resistance: 20%
[5]; Italy
  susceptibility: 52.4%
[5]; Turkey
  susceptibility: 76.2%
[5]; all countries
  overall susceptibility: 88.5%
[5]; all countries except Italy and Turkey
  susceptibility: 100%
[6]
  dose-dependent susceptible pathogens: 0%
  in vitro resistant pathogens: 7%
[7]; SC5314
  MIC: 0.5 mg/L (≈ 1.63 µM)
[7]; SC5314, 168 h
  MIC: 8 mg/L (≈ 26.1 µM)
[8]
  in vitro resistant pathogens: 45%

## C[C@@H](c1ncncc1F)[C@](O)(Cn1cncn1)c1ccc(F)cc1F [voriconazole]
[9]; Case 1, 2 days after flucloxacillin interruption, 8 mg/kg bid
  voriconazole level: < 0.2 µg/mL
[9]; Case 1, day 10 of combination with high dose flucloxacillin, 4 mg/kg bid
  voriconazole level: < 0.2 µg/mL
[9]; Case 1, subsequently after 3 days
  voriconazole level: 3 µg/mL
[9]; Case 2, after flucloxacillin stop and dose increase to 6 mg/kg bid
  voriconazole level: 4.2 µg/mL
[9]; Case 2, before flucloxacillin
  voriconazole level: 3.5 µg/mL
[9]; Case 2, during high dose flucloxacillin, two levels
  voriconazole level: < 0.5 µg/mL
[9]; Case 2, further increase, toxic level
  voriconazole level: 15.1 µg/mL
[9]; Case 2, intravenous maintenance 4 mg/kg bid
  voriconazole level: 3.2 µg/mL
[10]; Fusarium solani, read-out: BF MIC50 (≥50% BF damage), XTT, 24 h, 37 °C
  MIC50: > 256 mg/L
[10]; VRC 64 mg/L, PMN 5:1
  interaction of drug+PMN vs drug alone: antagonism
[11]; Scedosporium apiospermum, read-out: BF MIC50 (≥50% BF damage), XTT, 24 h, 37 °C
  MIC50: 32 mg/L
[11]; VRC 32 mg/L + PMN 5:1
  BF damage: 69.5 ± 3%
[11]; VRC 32 mg/L alone
  BF damage: 61 ± 4%
[12]; during ECMO
  samples with subtherapeutic concentration (<2 mg/L): 56%
[12]; under ECMO
  median trough concentration [IQR]: 2.4 [1.2–4.7] mg/L
[12]; without ECMO
  median trough concentration [IQR]: 2.5 [1.4–3.9] mg/L
  samples with subtherapeutic concentration (<2 mg/L): 39%
[13]
  MIC50: 32 mg/L (≈ 91.6 µM)
[14]; 48 h
  isolates with growth only in voriconazole well, n (%): 1 (2%)
[14]; 72 h
  isolates with growth only in voriconazole well, n (%): 16 (32%)
